Laboratory results: BigSolDB 2.1

CCS(=O)(=O)CCn1c([N+](=O)[O-])cnc1C
solubility (mole fraction)
Details | 278.15 K | 283.15 K | 288.15 K | 293.15 K | 298.15 K | 303.15 K | 308.15 K | 313.15 K | 318.15 K | 323.15 K
in 2-butoxyethanol | 0.00191 | 0.00214 | 0.00276 | 0.00372 | 0.00446 | 0.0054 | 0.00687 | 0.00826 | 0.0106 | 0.0133
in 2-ethoxyethanol | 0.00356 | 0.00437 | 0.00526 | 0.00647 | 0.00792 | 0.00957 | 0.012 | 0.0147 | 0.0181 | 0.0222
in 2-methoxyethanol | 0.00839 | 0.0102 | 0.0118 | 0.0145 | 0.0175 | 0.0209 | 0.0257 | 0.0314 | 0.0377 | 0.0462
in 2-propoxyethanol | 0.0022 | 0.00261 | 0.00329 | 0.00429 | 0.00513 | 0.00622 | 0.00778 | 0.00967 | 0.0123 | 0.0154
in DMAc | 0.0509 | 0.0571 | 0.0655 | 0.0745 | 0.083 | 0.0944 | 0.107 | 0.121 | 0.136 | 0.154
in DMF | 0.0454 | 0.0521 | 0.06 | 0.0691 | 0.0787 | 0.0905 | 0.104 | 0.119 | 0.134 | 0.152
in NMP | 0.0704 | 0.0804 | 0.089 | 0.0987 | 0.109 | 0.122 | 0.137 | 0.15 | 0.167 | 0.183
in acetone | 0.00866 | 0.011 | 0.0133 | 0.0161 | 0.0195 | 0.0233 | 0.028 | 0.0348 | 0.0426 | 0.0517
in ethanol | 0.000263 | 0.000375 | 0.000479 | 0.000665 | 0.000836 | 0.0012 | 0.0016 | 0.00207 | 0.00277 | 0.00377
in ethyl acetate | 0.00334 | 0.00412 | 0.00488 | 0.0057 | 0.00689 | 0.00825 | 0.0099 | 0.0118 | 0.0141 | 0.0168
in methanol | 0.000928 | 0.00119 | 0.00157 | 0.00197 | 0.00263 | 0.00345 | 0.00448 | 0.00597 | 0.00785 | 0.0104
in methyl acetate | 0.00557 | 0.00673 | 0.00791 | 0.0095 | 0.0114 | 0.0134 | 0.0159 | 0.0188 | 0.0223 | 0.0257
in n-butyl acetate | 0.00199 | 0.00235 | 0.0029 | 0.00358 | 0.00421 | 0.00513 | 0.00617 | 0.0074 | 0.00898 | 0.0107
in n-propyl acetate | 0.00255 | 0.00314 | 0.00377 | 0.00456 | 0.00543 | 0.00659 | 0.00783 | 0.00948 | 0.0114 | 0.0135
